Data reported in patent US20240173389A1, “Compositions and Methods For Reducing Immune Intolerance” (LAPIX THERAPEUTICS, INC., priority 2021, published 2024).

Tests used:
TLR7 = assay: TNF-α production by splenocytes in response to TLR7 ligand ssPolyU; type: cell-based, C57BL/6 mice; settings: for TNF-α mean: 48 hours, OPLT 1.85 μg/ml, dexamethasone 100 μg/ml, rapamycin 625 μg/ml
Procedure: OPLT was dissolved in sterile PBS at 100 μM, and pH was adjusted to approximately 7.5. Splenocytes from naïve C57BL/6 mice were stained with CFSE, prepared, cultured, and dosed. Cells were seeded at 2×10^5 cells/well.
To evaluate the effects of OPLT on cytokine production by splenocytes in response to different TLR ligands, splenocytes were incubated with one of the following TLR ligands in triplicate: PGN, LPS, ODN CPG, dsRNA, or ssRNA, as per group assignment. Cells were then treated as follows: • Control: No treatment; • OPLT: Cells were dosed with 1.85 μg/ml; • Dexamethasone: Cells were dosed with 100 μg/ml; • Rapamycin: Cells were dosed with 625 μg/ml. Cells were incubated for 48 hours before collecting the supernatant for TNF-α analysis.
The supernatant was collected for TNF-α analysis by ELISA.

B57BL6 Mice [1] = assay: Anti-FVIII titer analysis in mice given FVIII co-mixed with compound SC QW 4 weeks, then FVIII re-challenge (Example 1); type: in vivo
Procedure: (§1) OPLT was dissolved in sterile PBS, and pH was adjusted to approximately 7.5. OPLS, a comparator compound, was dissolved in sterile PBS, and pH was adjusted to approximately 7.5. FVIII in PBS was used as a control. For treatment, FVIII was co-mixed with OPLT, OPLS or diluted in PBS before administration, as per group assignment for each animal. For re-challenge, FVIII was administered alone SC to all animals regardless of group assignment. […] For a head-to-head comparison, 5 mg/injection was selected for OPLT. FVIII was dosed at 1 μg/injection.
The study was conducted in two parts: a treatment phase and a re-challenge phase. The objective of the treatment phase was to test the ability of OPLT to reduce the immunogenicity of FVIII as an antigen compared to animals administered FVIII or FVIII+OPLS. Animals were injected with FVIII, FVIII+OPLT, or FVIII+OPLS SC QW for 4 weeks. Blood samples were collected for anti-FVIII titer analysis after a one-week washout period from the last dose. The objective of the re-challenge phase of the study was to evaluate the duration of tolerance. Animals that have been successfully tolerized toward FVIII will not mount a robust immune response towards FVIII upon subsequent exposure to FVIII. After the washout period, animals were injected with (1 μg) FVIII SC QW for 2 weeks. Blood samples were collected one week after each FVIII injection for anti-FVIII titer analysis.

B57BL6 Mice [2] = assay: Anti-AAV9 titer analysis in mice given AAV9 with OPLT or liposomal OBLT (Example 3); type: in vivo
Procedure: OPLT and OBLT were dissolved in sterile PBS, and pH was adjusted to approximately 7.5. Liposomal OBLT was prepared using […]. AAV9 in PBS was used as a control. For treatment, AAV9 was co-mixed with OPLT or liposomal OBLT before administration, as per group assignment for each animal. AAV9 was administered with 5 mg of OPLT SC QW, 50 μg OBLT SC QW as liposomal OBLT or 7.2 μg OBLT PO QD as liposomal OBLT. For all SC groups, AAV9 was dosed at 10^6 particles/injection. For PO groups, AAV9 was dosed at 1.43×10^5 particles/injection.
Animals were injected with AAV9, AAV9+OPLT, or AAV9+liposomal OBLT SC QW for 4 weeks. Blood samples were collected for anti-AAV9 titer analysis after a one-week washout period from the last dose. For oral tolerance, animals were administered AAV9 or AAV9+liposomal OBLT PO, QD for 4 weeks. AAV9 was also administered SC QW to both groups during the treatment period. Blood samples were collected for anti-AAV9 titer analysis after a one-week washout period from the last dose.

B57BL6 Mice [3] = assay: Anti-GAA titer analysis in mice given GAA with OPLT or liposomal OBLT, then GAA re-challenge (Example 2); type: in vivo
Procedure: OPLT and OBLT were dissolved in sterile PBS, and pH was adjusted to approximately 7.5. Liposomal OBLT was prepared using DMPC. GAA in PBS was used as a control. For the tolerance induction (or treatment) period, GAA was co-mixed with OPLT or liposomal OBLT, or diluted in PBS before administration as per group assignment for each animal. For the re-challenge protocol, GAA was administered IV alone to all animals regardless of group assignment. GAA was administered with 5 mg of OPLT SC QW. […] For all SC groups, GAA was dosed at 1 μg/injection (1 μg/week). For PO groups, GAA was dosed at 0.14 μg/dose QD (approximately 1 μg/week).
The objective of the treatment phase was to test the ability of OPLT or liposomal OBLT to reduce the immunogenicity of GAA, as an antigen, compared to animals administered GAA alone. Animals were injected with GAA, GAA+OPLT, or GAA+liposomal OBTL SC QW for 4 weeks. Blood samples were collected for anti-GAA analysis after a one-week washout period from the last dose. For oral tolerance, animals were administered GAA or GAA+liposomal OBLT PO, QD for 4 weeks. GAA was also administered SC QW to both groups during the treatment period. Blood samples were collected for anti-GAA titer analysis after a one-week washout period from the last dose.
The objective of the re-challenge phase of the study was to evaluate the duration of tolerance. […] After the washout period, animals were injected with (1 μg) GAA SC QW for 2 weeks. Blood samples were collected one week after each injection for anti-GAA titer analysis.

FoxP3+/CD4+ T-cell = assay: Ex vivo flow cytometry of splenocytes for FoxP3+/CD4+ T-cells after FVIII treatment period (Example 1); type: in vivo, mice
Procedure: as §1
One week after the last dose in the treatment period, one animal from each group was selected at random for ex vivo analysis of the T-cell population. Spleens were collected and a single-cell suspension was prepared for cellular phenotyping by flow cytometry. Cells were stained and gated for CD4+ T-cells. FoxP3 expression level was evaluated for each animal.

[4] = weeks 1 and 2 of re-challenge with FVIII alone SC QW

For N[C@@H](Cc1ccc(OP(=O)(O)O)cc1)C(=O)O [OPLT, O-phospho-L-tyrosine], the TNF-α mean (TLR7; Poly U 0 ng/ml) was 0 pg/mL, the TNF-α mean (TLR7; Poly U 1 ng/ml, CTL 44) was 36 pg/mL and the TNF-α mean (TLR7; Poly U 10 ng/ml, CTL 51) was 40 pg/mL. For the same compound, the TNF-α mean (TLR7; Poly U 100 ng/ml, CTL 229) was 43 pg/mL, the “effect on splenocytes' TNF-α response to the TLR7 ligand Poly U (in words)” value (TLR7; high dose of Poly U, statistically significant) was “reduced splenocytes' response to a high dose of the TLR7 ligand Poly U” and the “inducing sustained immunotolerization toward FVIII” value (B57BL6 Mice [1]; OPLT versus OPLS, 5 mg/injection each) was “more effective than OPLS”. For the same compound, the “anti-FVIII titers versus FVIII control group” value (B57BL6 Mice [1]; end of treatment after one-week washout) was “statistically lower than the FVIII control group”, the “animals that developed anti-FVIII antibodies” value (B57BL6 Mice [1]; end of treatment after one-week washout, 5 mg/injection + FVIII SC QW 4 weeks, FVIII control 8/8) was 3/8 and the “average anti-FVIII titer in re-challenge period” value (B57BL6 Mice [1]; [4]) was “lower titer than animals in the OPLS+FVIII and the FVIII control group”. For the same compound, the “immune response to FVIII re-challenge” value (B57BL6 Mice [1]; [4]) was “did not develop a robust immune response”, the “anti-AAV9 immune response/titers versus AAV9 alone control” value (B57BL6 Mice [2]; SC QW 4 weeks) was “did not elicit an immune response” and the “animals that developed measurable anti-AAV9 antibodies” value (B57BL6 Mice [2]; SC QW 4 weeks with AAV9, after one-week washout, AAV9 SC control 8/8) was 0/8. For the same compound, the “animals that developed anti-GAA titers” value (B57BL6 Mice [3]; SC QW 4 weeks, 5 mg OPLT + GAA 1 μg, after one-week washout, controls 6/6) was 4/6, the “anti-GAA titers versus control groups” value (B57BL6 Mice [3]; SC QW 4 weeks, OPLT 5 mg, liposomal OBLT 50 μM (1.3 μg OBLT/injection), after one-week washout) was “statistically lower than the controls and comparators” and the “immune response to GAA re-challenge” value (B57BL6 Mice [3]; SC treatment group, weeks 1 and 2 of re-challenge, statistically significant at week 2 only) was “did not develop a robust immune response”. For the same compound, the “increase in FoxP3+/CD4+ compared to the FVIII alone group” value (FoxP3+/CD4+ T-cell; 5 mg/injection co-mixed with FVIII 1 μg SC QW 4 weeks, splenocytes of one animal per group one week after last dose) was 188%, the “increase in FoxP3+/CD4+ compared to OPLS+FVIII treatment” value (FoxP3+/CD4+ T-cell; 5 mg/injection co-mixed with FVIII SC QW 4 weeks) was 73% and the “FoxP3+/CD4+ T-cell (flow cytometry of splenocytes)” value (FoxP3+/CD4+ T-cell; 5 mg/injection co-mixed with FVIII SC QW 4 weeks, one animal per group, FVIII alone 2.94) was 8.47.
